Data on 34 compounds can be found in ChEMBL document CHEMBL4330138, “Discovery of new indole-based acylsulfonamide Nav1.7 inhibitors” (Bioorg Med Chem Lett, 2019).

SMILES strings stand for the structures.

Series [1] addresses Sodium channel protein type 5 subunit alpha (Homo sapiens, UniProt Q14524). Kind of series: Inhibition of human Nav1.5 at -50 mV holding potential by cell-based IonWorks barracuda automated electrophysiology method. It counts as ADME. In general terms: In patch-clamp work, channel activity is measured electrically.
Series [2] addresses T1, Sodium channel protein type 9 subunit alpha (Homo sapiens, UniProt Q15858). Put plainly: Inhibition of human Nav1.7 at -60 mV holding potential by cell-based IonWorks barracuda automated electrophysiology method.
Target sequence in this assay (Q15858 whole entry): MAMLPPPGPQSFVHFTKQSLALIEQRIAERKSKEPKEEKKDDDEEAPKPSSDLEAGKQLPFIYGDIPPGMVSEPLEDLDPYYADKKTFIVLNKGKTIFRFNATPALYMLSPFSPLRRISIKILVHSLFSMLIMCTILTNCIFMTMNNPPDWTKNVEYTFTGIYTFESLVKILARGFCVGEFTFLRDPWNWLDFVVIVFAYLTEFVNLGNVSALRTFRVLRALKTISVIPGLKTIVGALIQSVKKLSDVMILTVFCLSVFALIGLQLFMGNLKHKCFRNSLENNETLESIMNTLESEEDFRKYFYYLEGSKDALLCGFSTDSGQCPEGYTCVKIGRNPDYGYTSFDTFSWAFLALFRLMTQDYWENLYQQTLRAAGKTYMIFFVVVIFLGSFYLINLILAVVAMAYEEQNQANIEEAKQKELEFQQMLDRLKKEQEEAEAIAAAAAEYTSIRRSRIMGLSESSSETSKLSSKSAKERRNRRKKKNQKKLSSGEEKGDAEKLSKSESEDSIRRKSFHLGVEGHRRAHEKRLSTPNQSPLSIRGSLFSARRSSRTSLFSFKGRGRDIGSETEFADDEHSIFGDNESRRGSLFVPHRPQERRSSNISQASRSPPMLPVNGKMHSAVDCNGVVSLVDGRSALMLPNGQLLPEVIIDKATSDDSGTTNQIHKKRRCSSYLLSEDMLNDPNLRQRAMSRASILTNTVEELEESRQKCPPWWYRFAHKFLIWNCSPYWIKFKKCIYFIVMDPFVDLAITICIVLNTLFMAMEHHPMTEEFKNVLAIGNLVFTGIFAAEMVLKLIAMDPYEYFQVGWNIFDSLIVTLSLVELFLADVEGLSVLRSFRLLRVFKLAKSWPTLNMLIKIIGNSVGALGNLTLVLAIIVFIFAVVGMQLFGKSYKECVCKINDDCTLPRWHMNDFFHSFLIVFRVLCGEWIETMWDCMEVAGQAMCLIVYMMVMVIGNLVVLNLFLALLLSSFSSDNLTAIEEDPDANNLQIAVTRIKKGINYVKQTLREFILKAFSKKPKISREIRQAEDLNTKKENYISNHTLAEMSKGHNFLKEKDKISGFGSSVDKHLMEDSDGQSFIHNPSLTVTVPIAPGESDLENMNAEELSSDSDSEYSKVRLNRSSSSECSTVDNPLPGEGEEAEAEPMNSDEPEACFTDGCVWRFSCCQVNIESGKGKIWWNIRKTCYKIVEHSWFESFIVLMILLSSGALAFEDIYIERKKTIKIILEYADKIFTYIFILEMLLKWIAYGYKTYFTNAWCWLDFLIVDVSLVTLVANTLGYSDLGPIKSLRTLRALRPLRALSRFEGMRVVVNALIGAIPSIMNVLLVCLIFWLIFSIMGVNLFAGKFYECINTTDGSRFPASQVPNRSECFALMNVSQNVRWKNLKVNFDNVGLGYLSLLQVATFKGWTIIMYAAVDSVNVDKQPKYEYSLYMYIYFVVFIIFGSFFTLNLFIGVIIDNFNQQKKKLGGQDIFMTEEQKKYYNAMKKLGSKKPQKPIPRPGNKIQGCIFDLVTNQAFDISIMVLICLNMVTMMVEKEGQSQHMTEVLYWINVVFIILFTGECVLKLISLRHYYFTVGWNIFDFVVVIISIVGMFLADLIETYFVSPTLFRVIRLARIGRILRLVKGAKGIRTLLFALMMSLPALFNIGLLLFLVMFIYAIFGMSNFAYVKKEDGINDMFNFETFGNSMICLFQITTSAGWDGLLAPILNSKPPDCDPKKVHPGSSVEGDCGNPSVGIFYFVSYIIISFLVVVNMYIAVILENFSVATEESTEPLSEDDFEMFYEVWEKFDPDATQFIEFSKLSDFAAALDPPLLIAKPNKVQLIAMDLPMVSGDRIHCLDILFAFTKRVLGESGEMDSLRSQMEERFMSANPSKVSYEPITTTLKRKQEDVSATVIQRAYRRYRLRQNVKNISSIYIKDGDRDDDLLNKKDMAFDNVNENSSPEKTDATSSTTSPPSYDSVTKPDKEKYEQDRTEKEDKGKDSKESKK
Series [3] deals with T1, Sodium channel protein type 9 subunit alpha. Put plainly: Inhibition of human Nav1.7 at -60 mV holding potential by cell-based manual patch clamp electrophysiology method.
Target sequence in this assay (Q15858 whole entry): as above
The species entered for the next series is Homo sapiens. Kind of series: Selectivity ratio of IC50 for human Nav1.5 to IC50 for human Nav1.7.
Series [4] in a line: Permeability across apical to basolateral side in human Caco2 cells. The conditions noted are these: Caco-2, read-out: permeability. The format is ADME, cell-based. Background: Caco-2 monolayers are a common model of the intestinal barrier.
Series [5] in a line: Permeability across basolateral to apical side in human Caco2 cells. It counts as ADME, cell-based. The following applies: Caco-2, read-out: permeability.
Series [6] can be described thus: Efflux ratio of permeability from basolateral to apical side over apical to basolateral side in human Caco2 cells. It counts as ADME, cell-based. The conditions noted are these: Caco-2.
For series [7], the target named is CYP450 (Cytochrome P450 family, isoform not stated) (Homo sapiens, UniProt P04798+P05177+P05181+P08684+P10632+P10635+P11509+P11712+P13584+P20813+P20815+P20853+P24462+P24903+P33260+P33261+P51589+P78329+P98187+Q02928+Q08477+Q16678+Q16696+Q5TCH4+Q6VVX0+Q7Z449+Q8TAV3+Q96SQ9+Q9HB55). Put plainly: Inhibition of human CYP450. The format is ADME, protein assay.
Series [8] concerns the target T1, Sodium channel protein type 9 subunit alpha. Put plainly: Ratio of IC50 for human Nav1.7 at -60 mV holding potential by cell-based IonWorks barracuda automated electrophysiology method to IC50 for human Nav1.7 at -60 mV holding potential by cell-based manual patch clamp electrophysiology method.
Target sequence in this assay (Q15858 whole entry, looked up): as the sequence (Q15858 whole entry) above
The target is the same in series [9]. Put plainly: Ratio of IC50 for human Nav1.7 at -60 mV holding potential by cell-based manual patch clamp electrophysiology method to IC50 for human Nav1.7 at -60 mV holding potential by cell-based IonWorks barracuda automated electrophysiology method.
Target sequence in this assay (Q15858 whole entry, looked up): as the sequence (Q15858 whole entry) above

Sequence of Sodium channel protein type 5 subunit alpha (Q14524 whole entry): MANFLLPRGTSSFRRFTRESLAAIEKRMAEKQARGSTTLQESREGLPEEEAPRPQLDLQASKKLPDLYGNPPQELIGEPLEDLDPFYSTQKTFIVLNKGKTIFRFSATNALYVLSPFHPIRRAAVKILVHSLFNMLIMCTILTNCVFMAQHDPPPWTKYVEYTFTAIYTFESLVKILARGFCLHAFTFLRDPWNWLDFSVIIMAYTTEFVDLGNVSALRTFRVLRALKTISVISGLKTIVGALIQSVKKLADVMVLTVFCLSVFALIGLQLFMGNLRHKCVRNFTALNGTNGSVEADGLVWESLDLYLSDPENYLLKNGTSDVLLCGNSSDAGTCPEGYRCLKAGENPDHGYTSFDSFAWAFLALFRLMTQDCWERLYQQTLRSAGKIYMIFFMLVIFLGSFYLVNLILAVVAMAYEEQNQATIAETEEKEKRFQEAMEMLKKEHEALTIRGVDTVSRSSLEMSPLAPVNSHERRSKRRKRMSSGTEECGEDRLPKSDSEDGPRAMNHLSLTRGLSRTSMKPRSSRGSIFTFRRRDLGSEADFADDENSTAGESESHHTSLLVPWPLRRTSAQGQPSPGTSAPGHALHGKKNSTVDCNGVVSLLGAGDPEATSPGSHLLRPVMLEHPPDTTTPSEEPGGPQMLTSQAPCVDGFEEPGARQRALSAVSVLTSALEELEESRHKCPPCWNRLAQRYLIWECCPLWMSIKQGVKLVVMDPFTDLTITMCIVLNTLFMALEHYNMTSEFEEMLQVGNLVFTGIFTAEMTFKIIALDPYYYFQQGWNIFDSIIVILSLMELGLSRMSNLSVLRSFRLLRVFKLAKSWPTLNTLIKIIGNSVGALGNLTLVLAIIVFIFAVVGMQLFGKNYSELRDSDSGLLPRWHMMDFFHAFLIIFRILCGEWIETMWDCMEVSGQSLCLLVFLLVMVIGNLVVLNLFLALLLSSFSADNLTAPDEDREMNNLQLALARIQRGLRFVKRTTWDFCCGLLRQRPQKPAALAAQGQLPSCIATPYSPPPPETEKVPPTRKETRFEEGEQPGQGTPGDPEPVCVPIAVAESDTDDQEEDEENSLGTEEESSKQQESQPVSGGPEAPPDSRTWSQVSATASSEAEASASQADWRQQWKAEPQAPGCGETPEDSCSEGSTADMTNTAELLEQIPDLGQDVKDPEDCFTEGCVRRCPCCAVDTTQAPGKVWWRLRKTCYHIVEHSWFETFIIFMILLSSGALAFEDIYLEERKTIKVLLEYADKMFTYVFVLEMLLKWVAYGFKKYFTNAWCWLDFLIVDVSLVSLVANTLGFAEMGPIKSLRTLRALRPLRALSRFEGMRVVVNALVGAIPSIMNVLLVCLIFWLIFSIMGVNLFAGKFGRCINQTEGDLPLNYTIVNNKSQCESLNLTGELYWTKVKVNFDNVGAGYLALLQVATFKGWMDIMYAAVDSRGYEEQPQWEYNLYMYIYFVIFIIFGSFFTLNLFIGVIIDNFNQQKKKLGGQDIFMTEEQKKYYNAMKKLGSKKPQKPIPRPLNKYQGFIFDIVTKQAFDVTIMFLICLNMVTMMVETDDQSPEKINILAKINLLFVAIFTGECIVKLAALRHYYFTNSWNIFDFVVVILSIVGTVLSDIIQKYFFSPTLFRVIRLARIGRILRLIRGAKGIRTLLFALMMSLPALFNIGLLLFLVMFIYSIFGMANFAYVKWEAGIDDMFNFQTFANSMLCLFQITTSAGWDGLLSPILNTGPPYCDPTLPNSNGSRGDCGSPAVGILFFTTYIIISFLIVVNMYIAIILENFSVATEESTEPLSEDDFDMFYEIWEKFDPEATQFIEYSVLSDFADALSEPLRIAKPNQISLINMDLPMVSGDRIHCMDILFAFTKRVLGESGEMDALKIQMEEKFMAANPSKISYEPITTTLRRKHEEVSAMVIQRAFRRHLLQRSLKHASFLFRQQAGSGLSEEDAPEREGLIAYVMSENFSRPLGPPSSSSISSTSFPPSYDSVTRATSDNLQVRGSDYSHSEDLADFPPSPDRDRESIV

What is called IC50 is the concentration that inhibits the measured activity by half. With `Cn1ccc2ccc(C(=O)NS(=O)(=O)C3CC3)cc21`, the IC50 in series [1] and in series [2] was above 30000 nM in each case.

As to `Cn1cc(C2CCCCC2)c2ccc(C(=O)NS(=O)(=O)C3CC3)cc21`, the IC50 stood at 55 nM in series [3], 2400 nM in series [1] and 42 nM in series [2]. In addition, in the series listed under Homo sapiens, the Ratio IC50 was 57.

In turn, `Cn1cc(C2CCC(C(C)(C)C)CC2)c2ccc(C(=O)NS(=O)(=O)C3CC3)cc21` (stereo not drawn) showed an IC50 in [2] of 45 nM.

As to `Cn1cc(C2CCCNC2)c2ccc(C(=O)NS(=O)(=O)C3CC3)cc21` (stereo not drawn), the IC50 in [1] and in series [2] was above 30000 nM each time.

In series [2], `O=C(NS(=O)(=O)C1CC1)c1ccc2c(C3CCCCC3)c3n(c2c1)CCCCC3=O` came in with a half-maximal inhibitory concentration (IC50) of 1500 nM.

In the case of `Cn1cc(C2=CCNCC2)c2ccc(C(=O)NS(=O)(=O)C3CC3)cc21`, the IC50 in series [1] and in [2] was above 30000 nM in each case.

On to `Cc1cn(C)c2cc(C(=O)NS(=O)(=O)C3CC3)ccc12`, for which the IC50 in [1] and in series [2] was above 30000 nM throughout.

For the compound `Cn1cc(C2CCN(C(=O)OC(C)(C)C)CC2)c2ccc(C(=O)NS(=O)(=O)C3CC3)cc21`, the IC50 is 383 nM in [3], above 30000 nM in [1] and 388 nM in series [2].

For orientation: efflux ratio means the permeability from basolateral to apical divided by that in the opposite direction, in the common usage. `Cn1cc(C2CCCCC2)c2cc(F)c(C(=O)NS(=O)(=O)C3CC3)cc21`: the IC50 in [3] is 14 to 30 nM; in series [1], above 10000 nM; in series [2], 30 nM; in series [7] it was above 10000 nM. For the same compound, the Papp A→B in [4] worked out at 12.9 ×10⁻⁶ cm/s. Further, the Papp B→A in series [5] was 16 ×10⁻⁶ cm/s. In addition, the efflux ratio in series [6] was 1.2.

For the compound `Cn1cc(C2=CCN(C(=O)OC(C)(C)C)CC2)c2ccc(C(=O)NS(=O)(=O)C3CC3)cc21`, the figures for the IC50 in series [1] and in [2] were above 30000 nM and 635 nM, respectively.

As for `O=C(NS(=O)(=O)C1CC1)c1ccc2c(C3CCCCC3)c3n(c2c1)CCCCC3O` (stereo not drawn), in series [2], the IC50 was above 30000 nM.

In turn, `Cn1c(-c2cnc(N3CCOCC3)nc2)c(C2CCCCC2)c2ccc(C(=O)NS(=O)(=O)C3CC3)cc21` came in with an IC50 in series [3] of 30 nM.

Consider `Cn1cc(C2CCCN(C(=O)OC(C)(C)C)C2)c2ccc(C(=O)NS(=O)(=O)C3CC3)cc21` (stereo not drawn), for which the IC50 was above 30000 nM in [1] and 388 nM in series [2].

On to `C[C@H]1CC[C@@H](c2cn(C)c3cc(C(=O)NS(=O)(=O)C4CC4)ccc23)C1`, for which the IC50 in series [1] amounted to 5400 nM; in series [2] it was 62 nM.

Consider `Cn1cc(C2CCNCC2)c2ccc(C(=O)NS(=O)(=O)C3CC3)cc21`, for which the half-maximal inhibitory concentration (IC50) in series [1] and in series [2] was above 30000 nM each time.

Turning to `Cn1cc(C2(C)CCCCO2)c2ccc(C(=O)NS(=O)(=O)C3CC3)cc21` (stereo not drawn), the IC50 in series [1] and in series [2] was above 30000 nM each time.

Consider `CN1CCC(c2cn(C)c3cc(C(=O)NS(=O)(=O)C4CC4)ccc23)CC1`, for which the 50% inhibitory concentration (IC50) in series [1] and in [2] was above 30000 nM throughout.

For the compound `COc1ncc(-c2c(C3CCCCC3)c3ccc(C(=O)NS(=O)(=O)C4CC4)cc3n2C)cn1`, the IC50 was 46 nM in series [3] and 195 nM in [2]. Also, the Ratio IC50 in series [8] amounted to 4.

With `Cc1cn(C2CCCCC2)c2ccc(C(=O)NS(=O)(=O)C3CC3)cc12`, the figures for the IC50 in [1], in series [2] and in series [7] were 13000 nM, 37 nM and above 10000 nM, respectively. Besides, the Papp A→B in series [4] is 10.6 ×10⁻⁶ cm/s. Besides, the Papp B→A in series [5] came to 21.9 ×10⁻⁶ cm/s. Moreover, the efflux ratio in [6] came out at 2.1.

For the compound `Cn1cc(C2=CCOCC2)c2ccc(C(=O)NS(=O)(=O)C3CC3)cc21`, the results for the concentration for half-maximal inhibition (IC50) in series [1] and in series [2] were above 30000 nM and 20000 nM, respectively.

On to `Cn1cc(C(C)(C)C)c2ccc(C(=O)NS(=O)(=O)C3CC3)cc21`, for which the figures for the IC50 in [1] and in [2] were above 30000 nM and 1100 nM, respectively.

Regarding `Cn1cc(C2CCC2)c2ccc(C(=O)NS(=O)(=O)C3CC3)cc21`, the concentration for half-maximal inhibition (IC50) is 6700 nM in series [1] and 360 nM in series [2].

With `CCC(c1cn(C)c2cc(C(=O)NS(=O)(=O)C3CC3)ccc12)C(C)(C)C` (stereo not drawn), the IC50 is above 30000 nM in series [1] and 1200 nM in series [2].

On to `Cn1c(-c2ccc(C#N)nc2)c(C2CCCCC2)c2ccc(C(=O)NS(=O)(=O)C3CC3)cc21`, for which the values for the IC50 in series [3] and in series [2] were 366 nM and 123 nM, respectively. The Ratio IC50 in series [9] stood at 3.

For the compound `Cc1cn(C2C=CCCC2)c2ccc(C(=O)NS(=O)(=O)C3CC3)cc12` (stereo not drawn), the IC50 in [1] is 460 nM; in series [2], 72 nM.

`C[C@@H]1CC[C@@H](c2cn(C)c3cc(C(=O)NS(=O)(=O)C4CC4)ccc23)C1`: the IC50 is above 30000 nM in series [1] and 509 nM in [2].

Consider `Cn1cc(C2C3CC4CC(C3)CC2C4)c2ccc(C(=O)NS(=O)(=O)C3CC3)cc21` (stereo not drawn), for which the IC50 in [1] worked out at 8400 nM; in [2], 79 nM.

For the compound `Cn1cc(C2C3CC4CC2CN(C4)C3)c2ccc(C(=O)NS(=O)(=O)C3CC3)cc21` (stereo not drawn), the IC50 in series [1] and in series [2] was above 30000 nM in each case.

In turn, `Cn1c(-c2ccc(N3CCCC3)nc2)c(C2CCCCC2)c2ccc(C(=O)NS(=O)(=O)C3CC3)cc21` gave an IC50 in series [3] of 38 nM. This counts as double-digit nanomolar.

Consider `Cn1cc(C2CCCC(C)(C)C2)c2ccc(C(=O)NS(=O)(=O)C3CC3)cc21` (stereo not drawn), for which the half-maximal inhibitory concentration (IC50) in series [1] was found to be 4100 nM; in series [2], 48 nM.

Regarding `COc1ncc(-c2c(C3CCCCC3)c3ccc(C(=O)NS(=O)(=O)C4CC4)cc3n2C)cc1C#N`, the IC50 in series [3] is 85 nM.

As to `Cn1c(-c2ccoc2)c(C2CCCCC2)c2ccc(C(=O)NS(=O)(=O)C3CC3)cc21`, in [2], the IC50 came out at 440 nM.

In [2], `Cn1cc(C2CCCCCC2)c2ccc(C(=O)NS(=O)(=O)C3CC3)cc21` registered an IC50 of 116 nM.

As for `Cc1nn(-c2cnc(OCC3(C)CC3)c(Cl)c2)c2ccc(C(=O)NS(C)(=O)=O)cc12`, the IC50 in series [3] turned out to be 8 nM.
